Results taken from patent US11939319B2, “Pyridinyl and pyrazinyl-(asa)indolsulfonamides” (UCB Pharma GmbH, priority 2018, dated 2024).

Columns and labels:
GPR17 [1] = biological target: T1, GPR17 (Homo sapiens, UniProt Q13304); conditions: WO 2005/103291; cited from earlier work
Target sequence in this assay (Q13304 whole entry, species assumed): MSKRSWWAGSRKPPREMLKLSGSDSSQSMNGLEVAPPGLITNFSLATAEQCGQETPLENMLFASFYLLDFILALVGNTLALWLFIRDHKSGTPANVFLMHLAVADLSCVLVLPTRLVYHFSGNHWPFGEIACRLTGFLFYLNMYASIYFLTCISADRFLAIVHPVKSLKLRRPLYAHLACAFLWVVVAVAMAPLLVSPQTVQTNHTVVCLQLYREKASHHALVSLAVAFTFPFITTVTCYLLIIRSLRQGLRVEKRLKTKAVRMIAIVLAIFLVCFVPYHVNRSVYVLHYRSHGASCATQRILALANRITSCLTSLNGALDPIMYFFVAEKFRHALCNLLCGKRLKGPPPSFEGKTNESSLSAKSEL

GPR17 [2] = biological target: T1, GPR17; assay: cAMP accumulation functional assay (HTRF) in CHO hGPR17 cells; assay type: cell-based; set-up: host or cells: Flp-In T-REx CHO cells, expression induced with doxycycline; conditions: Schild analysis against MDL29,951, 5 μM forskolin, activity range, read-out: cAMP assay pA2 (converted)
Description: (§1) Flp-In T-REx CHO cells stably expressing human GPR17 receptor (CHO hGPR17) from Evi Kostenis' lab (Bonn University, Germany) were cultured at 37° C. in a humidified atmosphere of 5% CO2. Cells were grown in DMEM with Nutrient Mixture F-12 supplemented with hygromycin B (500 μg/ml) and blasticidin (30 μg/ml). Expression from the Flp-In locus was induced by treatment with doxycycline (1 μg/ml) for 16-20 h prior assays.
GPR17 activation can also recruit Gi-type G-protein signaling, resulting in a decrease of intracellular cyclic adenosine monophosphate (cAMP). Intracellular cAMP changes can be measured using the HTRF cAMP dynamic assay kit from CisBio (Codolet, France). Using homogenous time-resolved fluorescence technology (HTRF), the assay is based on competition between native cAMP produced by cells and cAMP labelled with the dye d2. The tracer binding was determined by an anti-cAMP antibody labeled with cryptate.
CHO hGPR17 were detached with PBS containing EDTA and dispatched in black 384-well plates with 5,000 cells per well. Cells were first incubated for 30 minutes at room temperature in HBSS Hepes (pH 7.4) containing vehicle or varying concentrations of test GPR17 antagonist/inverse agonist compounds. Then, a dose response curve of MDL29,951 GPR17 agonist (typically from 10^−5M to 10^−10M) was added on vehicle and on each test GPR17 antagonist/inverse agonist compound concentration in a final volume of 20 μL HBSS Hepes buffer (pH 7.4) containing 1% DMSO, 5 μM forskolin and 0.1 mM IBMX. After 60 minutes incubation at room temperature, the reaction is terminated and the cells lysed by adding the d2 detection reagent and the cryptate reagent in 10 μL lysis buffer each according to manufacturer's instructions. After 60 minutes incubation, changes in cAMP concentrations are measured according to manufacturer's instructions using an Envision plate reader with laser excitation. All incubations were performed in duplicate. Data was analyzed using GraphPad Prism software using the 4-parameter logistic equation to measure MDL29,951 pEC50s in absence and presence of GPR17 antagonist/inverse agonist test compounds. Dose ratio (DR) were plotted against antagonist concentrations and Schild analysis provided estimated affinity pA2 of GPR17 antagonist/inverse agonist test compounds.
The activities of the Example compounds tested are depicted in the table below. The activity ranges A, B and C refer to pA2 values in the cAMP assay as follows: “A”: pA2 6.5≤x<7.5, “B”: pA2 7.5≤x<8.5, “C”: 8.5≤pA2.
Target sequence in this assay (Q13304 29-367 limits assumed): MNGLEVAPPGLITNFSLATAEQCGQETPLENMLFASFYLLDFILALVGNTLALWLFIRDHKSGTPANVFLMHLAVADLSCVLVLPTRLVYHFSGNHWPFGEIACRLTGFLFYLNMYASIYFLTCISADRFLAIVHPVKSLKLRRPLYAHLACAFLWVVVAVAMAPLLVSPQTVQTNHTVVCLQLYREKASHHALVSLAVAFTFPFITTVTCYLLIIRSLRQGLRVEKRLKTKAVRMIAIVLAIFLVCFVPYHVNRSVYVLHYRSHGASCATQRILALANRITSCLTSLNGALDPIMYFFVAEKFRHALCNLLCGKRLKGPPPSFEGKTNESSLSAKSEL

GPR17 [3] = biological target: T1, GPR17; assay: Calcium mobilization functional assay (Ca2+ assay) in CHO hGPR17 cells; assay type: cell-based; set-up: host or cells: Flp-In T-REx CHO cells, expression induced with doxycycline; conditions: inhibition of 50 nM MDL29,951 (GPR17 agonist), activity range, read-out: Ca^2+ assay pIC50 (converted)
Description: as §1
Target sequence in this assay (Q13304 29-367 limits assumed): as above
GPR17 is a G-protein coupled receptor. GPR17 activation triggers Gq-type G-protein signaling resulting in endoplasmic reticulum calcium (Ca^2+) stores release in cytosol which can be measured using Calcium 5 dye, a fluorescent indicator dye of cytosolic Ca^2+ levels. The compounds of the present invention were assessed either in the Ca^2+ assay or in the GPR17 cAMP assay, described further below.
CHO hGPR17 were defrosted and seeded at a density of 20,000 cells per well into black 384-well plates with clear bottom. Cells were incubated overnight at 37° C. in a humidified atmosphere of 5% CO2. Sixteen to twenty hours after seeding, CHO hGPR17 were loaded for 60 min with Calcium 5 dye, a cytosolic Ca^2+ indicator fluorescent dye, according to manufacturer's instructions. Fluorescent signal relative to cytosolic Ca^2+ concentration was recorded over time at room temperature in FLIPR Tetra reader. Cells were first incubated for 30 minutes at room temperature in HBSS Hepes buffer pH 7.4 containing increasing concentrations of test compounds (typically 10^−11 M to 10^−6M). Then, 50 nM MDL29,951, a GPR17 agonist, was added to the cells. Inhibitory effects of varying concentrations test compounds were measured and resulting pIC50S were determined. All incubations were performed in duplicate and results were compared to a concentration response curve of GPR17 agonist and antagonist reference compounds. Analysis and curve fitting were performed in ActivityBase XE using XLfit 4-parameter logistic equation y=A+((B−A)/(1+((C/x)^D))) where A, B, C and D stand for minimum y, maximum y, IC50 and slope, respectively.
The activities of the Example compounds tested are depicted in the table 6 in Section B-IIB below. The activity ranges A, B and C refer to pIC50 values in the Ca^2+ assay as follows: “A”: pIC50 6.5≤x<7.5, “B”: pIC50 7.5≤x<8.5, “C”: 8.5≤pIC50

Structure (SMILES)	amounts needed in the assays (GPR17 activating ligand) (GPR17 [1])	Kb (GPR17 [2]) [nM]	IC50 (GPR17 [3]) [nM]
NCc1[nH]cc(CCC(=O)O)c1CC(=O)O [PBG, porphobilinogen]	mM range	–	–
COc1nc(Br)cnc1NS(=O)(=O)c1c[nH]c2cc(Cl)ccc12 [Example I-10, N-(5-bromo-3-methoxypyrazin-2-yl)-6-chloro-1H-indole-3-sulfonamide]	–	≤ 3.16	≤ 3.16
Cc1nc(F)c(NS(=O)(=O)c2c[nH]c3cc(Cl)ccc23)cc1F [Example I-7, 6-chloro-N-(2,5-difluoro-6-methylpyridin-3-yl)-1H-indole-3-sulfonamide]	–	3.16 to 31.6	3.16 to 31.6
COc1nc(OC)c(NS(=O)(=O)c2c[nH]c3nc(Cl)ccc23)cc1F [Example I-34, 6-chloro-N-(5-fluoro-2,6-dimethoxypyridin-3-yl)-1H-pyrrolo[2,3-b]pyridine-3-sulfonamide]	–	3.16 to 31.6	3.16 to 31.6
O=S(=O)(Nc1cnc(Br)cn1)c1c[nH]c2cc(Cl)ccc12 [Example I-18, N-(5-bromopyrazin-2-yl)-6-chloro-1H-indole-3-sulfonamide]	–	31.6 to 316	31.6 to 316
COc1nc(Cl)c(F)cc1NS(=O)(=O)c1c[nH]c2cc(Cl)ccc12 [Example I-3, 6-chloro-N-(6-chloro-5-fluoro-2-methoxypyridin-3-yl)-1H-indole-3-sulfonamide]	–	≤ 3.16	3.16 to 31.6
NCC(=O)CCC(=O)O [Example 5-ALA, 5 amino levulinic acid]	three digit micromolar range	–	–
COc1nc(F)c(NS(=O)(=O)c2c[nH]c3nc(Cl)ccc23)cc1F [Example I-33, 6-chloro-N-(2,5-difluoro-6-methoxypyridin-3-yl)-1H-pyrrolo[2,3-b]pyridine-3-sulfonamide]	–	31.6 to 316	31.6 to 316
O=S(=O)(Nc1cc(F)c(Cl)nc1F)c1c[nH]c2cc(Cl)ccc12 [Example I-2, 6-chloro-N-(6-chloro-2,5-difluoropyridin-3-yl)-1H-indole-3-sulfonamide]	–	3.16 to 31.6	≤ 3.16
O=S(=O)(Nc1ccc(I)nc1)c1c[nH]c2cc(Cl)ccc12 [Example I-21, 6-chloro-N-(6-iodopyridin-3-yl)-1H-indole-3-sulfonamide]	–	3.16 to 31.6	31.6 to 316
O=S(=O)(Nc1cnc(Cl)cc1F)c1c[nH]c2cc(Cl)ccc12 [Example I-25, 6-chloro-N-(6-chloro-4-fluoropyridin-3-yl)-1H-indole-3-sulfonamide]	–	≤ 3.16	3.16 to 31.6
COc1nc(F)c(NS(=O)(=O)c2c[nH]c3cc(Cl)ccc23)cc1F [Example I-5, 6-chloro-N-(2,5-difluoro-6-methoxypyridin-3-yl)-1H-indole-3-sulfonamide]	–	3.16 to 31.6	3.16 to 31.6
